Source: US11197885B2, “Collagen enhancing agent made from low acyl gellan gum, methods of making and methods of using the same” (The University of Toledo, priority 2015, dated 2021)

What was measured:
[1] = tested on: pCREB in mouse cortical neurons; experiment: nuclear pCREB in midi-GAGR-treated mouse cortical neurons pre-treated with signaling inhibitors; type: cell-based; settings: inhibitor 6 h (SU5402 4 μM, staurosporine 3 nM, U0126 10 μM, LY294002 20 μM, KN-62 10 μM, PF-573228 1 μM), then 1 μM midi-GAGR 48 h
Description: (§1) To analyze the effect of polysaccharides on neurite outgrowth, primary mouse cortical neurons were treated with vehicle (H2O) or 1 μM of dextran, alginate, or midi-GAGR, 0.01 μM of HA-GAGR, or 0.1 μM of LA-GAGR for 2 days prior to immunocytochemistry using anti-α-tubulin antibody and secondary Alexa488nm antibody. An etched grid coverslip containing 200 numbered boxes was used to select neurons objectively for image acquisition and analysis. A total of 24 boxes were randomly selected per treatment group. All the neurons having total neurite length longer than 4 times of the diameter of neuron cell body were chosen for image analysis. The total length of the neurites of each neuron was measured using Metamorph and used to calculate average total neurite length. To examine the effect of polysaccharides on the phosphorylation (activation) of nuclear CREB, neurons were stained with anti-pCREB antibody (Abcam & Santa Cruz biotechnologies, 2nd antibody with Alexa568nm), anti-α-tubulin antibody (Sigma, 2nd antibody with Alexa488nm), and DAPI (Sigma) after two-day incubation with vehicle (H2O) or 1 μM of dextran, alginate, or midi-GAGR, 0.01 μM of HA-GAGR, or 0.1 μM of LA-GAGR. […] The images of neurons on coverslips were taken by confocal microscopy at the same gain (850), offset (−0.01), and exposure time (2 sec). The intensity of the staining of nuclear pCREB was measured using Metamorph and used to calculate average intensity. In addition, the phosphorylation of CREB in the cytosols of mouse cortical neurons treated with polysaccharides were detected by immunoblotting. Primary mouse neurons were dissected from 16 mouse embryos (E17) and plated in the wells of 6-well plates (1×10^6 cells/well), differentiated for 6 days, and treated with polysaccharides for 48 h. Then, neurons were harvested and lysed in 1% Igepal CA-630 (Sigma)-containing PMEE buffer plus protease and phosphatase inhibitor cocktails (Sigma) for protein extraction. Extracted proteins were separated in 4-12% NuPAGE Bis-Tris protein gels (Life Technologies) and transferred to nitrocellulose membrane (GE Healthcare Life Science, Pittsburgh, Pa.) using a semidry blotter (Hoefer, Inc., San Francisco, Calif.). The protein bands on blots recognized by anti-pCREB (Santa Cruz Biotechnologies) and anti-CREB antibodies were detected on Amersham Hyperfilm™ ECL films (GE Healthcare Life Science) using SuperSignal® West Pico Chemiluminescent Substrate (Thermo Scientific).
Pharmacological agents were used to inhibit signaling molecules downstream of FGFR1 that mediate CREB phosphorylation. […] PF-573228 (PF, 1 μM) that inhibits FAK which sits at the bottleneck of the signaling pathway downstream of NCAM180 was also included to examine whether NCAM180 is involved in midi-GAGR-mediated CREB phosphorylation or not. […]

[2] = tested on: rat cortical neurons (E17, DIV6); experiment: FGFR1 dependence of neuroprotection against 4HNE, LIVE/DEAD assay; type: cell-based
Source text: The protective effect of polysaccharides on primary cortical neurons from 4HNE, H2O2, and Aβ42 peptide (Sigma) was examined using LIVE/DEAD® Viability/Cytotoxicity Assay Kit (Life Technologies). Female pregnant mice (BALB/C, E17, Charles River Laboratories International, Inc.) or female pregnant SD rats (E17, bred in house) were anesthetized and dissected to obtain 8-9 embryos per animal. Cortical neurons were isolated from embryonic brains and differentiated on poly-L-lysine-coated coverslips in B27/neurobasal medium. For drug treatment before free radical treatment, mouse cortical neurons (5 days in vitro [DIV5]) were treated with vehicle (H2O), 1 μM of 5 kD dextran (Sigma), alginate (Sigma), midi-GAGR, 0.01 μM of high acyl gellan gum (HA-GAGR, CPKelco Co.), or 0.1 μM of LA-GAGR for 24 h and then treated with 10 μM 4HNE or 50 μM H2O2 for 24 h, or 2 μM Aβ42 peptide for 48 h prior to viability/cytotoxicity assay. For drug co-treatment with free radicals, rat cortical neurons (DIV5) were treated with 1 μM of dextran, alginate, or midi-GAGR, 0.01 μM of HA-GAGR, or 0.1 μM of LA-GAGR along with either 10 μM 4HNE (24 h) or 2 μM Aβ42 peptide (48 h). […]

[3] = tested on: mouse cortical neurons (E17, DIV5); experiment: LIVE/DEAD assay, pre-treatment of mouse cortical neurons before 4HNE, H2O2 or Aβ42; type: cell-based
Source text: The protective effect of polysaccharides on primary cortical neurons from 4HNE, H2O2, and Aβ42 peptide (Sigma) was examined using LIVE/DEAD® Viability/Cytotoxicity Assay Kit (Life Technologies). Female pregnant mice (BALB/C, E17, Charles River Laboratories International, Inc.) or female pregnant SD rats (E17, bred in house) were anesthetized and dissected to obtain 8-9 embryos per animal. Cortical neurons were isolated from embryonic brains and differentiated on poly-L-lysine-coated coverslips in B27/neurobasal medium. For drug treatment before free radical treatment, mouse cortical neurons (5 days in vitro [DIV5]) were treated with vehicle (H2O), 1 μM of 5 kD dextran (Sigma), alginate (Sigma), midi-GAGR, 0.01 μM of high acyl gellan gum (HA-GAGR, CPKelco Co.), or 0.1 μM of LA-GAGR for 24 h and then treated with 10 μM 4HNE or 50 μM H2O2 for 24 h, or 2 μM Aβ42 peptide for 48 h prior to viability/cytotoxicity assay. For drug co-treatment with free radicals, rat cortical neurons (DIV5) were treated with 1 μM of dextran, alginate, or midi-GAGR, 0.01 μM of HA-GAGR, or 0.1 μM of LA-GAGR along with either 10 μM 4HNE (24 h) or 2 μM Aβ42 peptide (48 h). To examine the extent to which midi-GAGR-mediated neuroprotection depends on FGFR1, rat cortical neurons (E17, DIV5) were pre-treated with 4 μM SU5402 (Sigma) for 6 h and treated with 10 μM 4HNE and either vehicle or 1 μM midi-GAGR for 24 h prior to cell viability/cytotoxicity assay. As controls, neurons were treated with SU5402, midi-GAGR, 4HNE, 4HNE plus midi-GAGR, or SU5402 plus midi-GAGR.
For cell viability/cytotoxicity measurement, neurons on glass coverslips were incubated in 1×PBS containing 2 μM calcein AM (live cells: green) and 4 μM ethidium homodimer-1 (dead cells: red) for 10 min at 37° C. Immediately thereafter, neurons were imaged by 10×objective using a fluorescence Olympus IX71 microscope (Olympus America Inc., Center Valley, Pa.) and, for the acquisition of high-quality images, using TCS SP5 multi-photon laser scanning confocal microscope.
Midi-GAGR attenuated neurite atrophy caused by free reactive radicals. It is now shown herein that midi-GAGR protect neurons from the death caused by free radical insults. The extent to which midi-GAGR protects the primary culture of rodent cortical neurons from 4HNE and H2O2 was determined. In addition to the radicals, amyloid β peptide (Aβ42) was also tested. Aβ42 peptide is a major causative factor that causes oxidative stress and neuron death. Mouse cortical neurons (E17, DIV5) were treated with 10 μM 4HNE (24 h), 50 μM H2O2 (24 h), or 2 μM Aβ42 peptide (48 h) after the treatment of the neurons with vehicle (H2O), midi-GAGR (1 μM), dextran (1 μM), alginate (1 μM), LA-GAGR (0.1 μM), or HA-GAGR (0.01 μM) for 24 h. The concentrations of 4HNE, H2O2, and Aβ42 peptide were chosen according to their patho-physiological concentrations. The concentrations of LA-GAGR and HA-GAGR were chosen because, within the same volume, the total numbers of sugar units in the polysaccharides at the concentrations are close to that of 1 μM midi-GAGR. The viability of neurons was assessed using LIVE/DEAD® Viability/Cytotoxicity Assay Kit in which membrane-permeant calcein AM is cleaved by esterase in live cells, thus yielding green fluorescence, and membrane-impermeant ethidium homodimer-1 stains the nucleic acids of plasma membrane-compromised cells with red fluorescence. The numbers of green (live) and red (dead) neurons in each condition were counted using Metamorph. Although the intensities of green fluorescent signals in neurons treated with either free radicals or Aβ42 peptide were weak, the neurons were included in the counting. About 8-9% of vehicle-treated neurons died during the process of live/dead cell assay (FIGS. 23A-23F, FIGS. 24A-24C).

[4] = tested on: primary mouse cortical neurons (E17, DIV4); experiment: neurite outgrowth in primary mouse cortical neurons; type: cell-based; settings: 2 days; midi-GAGR, dextran, alginate 1 μM; LA-GAGR 0.1 μM; HA-GAGR 0.01 μM
Description: as §1, with “Then, neurons were harvested and lysed in 1% Igepal CA-630 (Sigma)-containing PMEE buffer plus protease and phosphatase inhibitor cocktails (Sigma) for protein extraction. Extracted proteins were separated in 4-12% NuPAGE Bis-Tris protein gels (Life Technologies) and transferred to nitrocellulose membrane (GE Healthcare Life Science, Pittsburgh, Pa.) using a semidry blotter (Hoefer, Inc., San Francisco, Calif.).” left out

[5] = ABTS Antioxidant Assay Kit; type: biochemical; settings: 10 μM
Description: The antioxidant capacity of midi-GAGR was measured using ABTS Antioxidant Assay Kit (Zenbio Co.). […] This was slightly stronger than antioxidant capacity of LA-GAGR (10 μM LA-GAGR=15.4 μM trolox) (Table 2).

[6] = tested on: pCREB in mouse cortical neurons; experiment: pCREB immunoblotting of cytosols of mouse cortical neurons; type: cell-based; settings: 48 h, same concentrations
Description: (§2) To analyze the effect of polysaccharides on neurite outgrowth, primary mouse cortical neurons were treated with vehicle (H2O) or 1 μM of dextran, alginate, or midi-GAGR, 0.01 μM of HA-GAGR, or 0.1 μM of LA-GAGR for 2 days prior to immunocytochemistry using anti-α-tubulin antibody and secondary Alexa488nm antibody. An etched grid coverslip containing 200 numbered boxes was used to select neurons objectively for image acquisition and analysis. A total of 24 boxes were randomly selected per treatment group. All the neurons having total neurite length longer than 4 times of the diameter of neuron cell body were chosen for image analysis. The total length of the neurites of each neuron was measured using Metamorph and used to calculate average total neurite length. […] The intensity of the staining of nuclear pCREB was measured using Metamorph and used to calculate average intensity. In addition, the phosphorylation of CREB in the cytosols of mouse cortical neurons treated with polysaccharides were detected by immunoblotting. […] The protein bands on blots recognized by anti-pCREB (Santa Cruz Biotechnologies) and anti-CREB antibodies were detected on Amersham Hyperfilm™ ECL films (GE Healthcare Life Science) using SuperSignal® West Pico Chemiluminescent Substrate (Thermo Scientific). […]

[7] = tested on: pCREB in mouse cortical neurons; experiment: nuclear pCREB immunostaining in mouse cortical neurons (Example 4); type: cell-based; settings: 48 h; midi-GAGR, alginate, dextran 1 μM; LA-GAGR 0.1 μM; HA-GAGR 0.01 μM
Description: as §2

[8] = tested on: phosphorylated CREB in mouse embryonic cortical neurons; experiment: nuclear p-CREB immunostaining in embryonic cortical neurons (Example 2); type: cell-based; settings: 1 μM, 24 h
Description: (§3) Differentiated PC12 cells and mouse embryonic cortical neurons (E17, DIV14) were treated with mock, dextran, alginate, HA-GAGR, or midi-GAGR (1 μM) for 24 h and fixed in 3.7% paraformaldehyde. The fixed cells and neurons were immunostained with antibodies against α-tubulin and phosopho-CREB (p-CREB) along with DAPI (nucleus).

[9] = tested on: phosphorylated CREB in differentiated PC12 cells; experiment: nuclear p-CREB immunostaining in differentiated PC12 cells; type: cell-based; settings: 1 μM, 24 h
Description: as §3

[10] = tested on: differentiated dopaminergic PC12 cells exposed to 30 μM 6-OHDA; experiment: LIVE/DEAD viability of differentiated PC12 cells exposed to 6-OHDA; type: cell-based; settings: 1 μM for 6 h, then 30 μM 6-OHDA for 24 h
Description: Differentiated dopaminergic PC12 cells and primary mouse embryonic cortical neurons (E17, DIV14) were treated with mock (H2O) or 1 μM of dextran, alginate, HA-GAGR, or midi-GAGR for 6 h and insulated by oxidative stressors (30 μM 6-OHDA [PC12] and 10 μM amyloid β peptide [cortical neurons]) for 24 h.

[11] = pre-treatment 24 h (midi-GAGR, alginate, dextran 1 μM; LA-GAGR 0.1 μM; HA-GAGR 0.01 μM), then 10 μM 4HNE 24 h
[12] = pre-treatment 24 h (same concentrations), then 2 μM Aβ42 peptide 48 h
[13] = pre-treatment 24 h (same concentrations), then 50 μM H2O2 24 h

CN([C@@H](Cc1ccc(OS(=O)(=O)c2cccc3cnccc23)cc1)C(=O)N1CCN(c2ccccc2)CC1)S(=O)(=O)c1cccc2cnccc12 [KN-62]
effect of inhibitor pre-treatment on average intensity of pCREB in midi-GAGR-treated neurons [1]: decreased slightly but still statistically significantly

CS(=O)(=O)c1cccc(CNc2nc(Nc3ccc4c(c3)CCC(=O)N4)ncc2C(F)(F)F)c1 [PF-573228]
effect of inhibitor pre-treatment on average intensity of pCREB in midi-GAGR-treated neurons [1]: did not decrease

Cc1c[nH]c(/C=C2\C(=O)Nc3ccccc32)c1CCC(=O)O [SU5402]
effect of inhibitor pre-treatment on average intensity of pCREB in midi-GAGR-treated neurons [1]: significantly decreased
percent of dead cells ([2]; SU5402 4 μM alone, no 4HNE): did not increase
percent of dead cells ([2]; SU5402 4 μM pre-treatment 6 h, then 10 μM 4HNE): ~80%

N#CC(=C(/N)Sc1ccccc1N)/C(C#N)=C(\N)Sc1ccccc1N [U0126]
effect of inhibitor pre-treatment on average intensity of pCREB in midi-GAGR-treated neurons [1]: significantly decreased

[D-Glc(β1→4)D-GlcA(β1→4)D-Glc(β1→4)L-Rha(α1→3)]n [LA-GAGR]
percent of neuron death [3, 11]: 10%
percent of neuron death [3, 12]: ~10%
percent of neuron death [3, 13]: ~13%
fold change in average total neurite length vs vehicle [4]: ~1.6 fold
antioxidant capacity, ABTS assay [5]: 15.4 μM Trolox
levels of pCREB by immunoblotting vs control [6]: significantly increased
average intensity of nuclear pCREB vs vehicle [7]: ~2 fold

alginate
percent of neuron death [3, 11]: reduced
percent of neuron death [3, 12]: did not decrease
percent of neuron death [3, 13]: did not reduce
increase in levels of nuclear p-CREB [8]: not significantly increased
fold change in average total neurite length vs vehicle [4]: did not enhance neuritogenesis
increase in levels of nuclear p-CREB [9]: not significantly increased
6-OHDA-induced cell death [10]: did not
